Assay [1] has as its system first-pass cells. In words: Enrichment of EPCs from first-pass cells on plasma-coated flasks in the presence of 17-β-estradiol, flow-cytometry staining. It is filed as cell-based, human. Conditions: 0.002-2 microgram/ml 17-β-Estradiol, 5-20% autologous serum, VEGF, Heparin, 3 experiments. The method, then: Coating T-75 Flasks with Autologous Plasma Example 3 for High % Serum Medium Culturing Collection of Cells for FACS Staining FACS Staining In a set of separate experiments, enrichment of EPCs from first-pass cells was evaluated following in-vitro growth on autologous plasma-coated T-75 Flasks in the presence of medium containing autologous serum, VEGF, 17-beta-estradiol and Heparin. These were experiments conducted with human blood, using the protocol described hereinabove. […] FACS staining results of cells cultured in media containing 5-20% autologous serum (typically 10%), 1, 2, 10, or 20 ng/ml VEGF, 0.002-2 microgram/ml 17-β-Estradiol and 5-25 IU/ml Heparin are summarized. The following surface markers were analyzed: CD45 (a pan-lymphocyte marker), the stem/progenitor cell markers CD34 and CD117, and the EPC/endothelial cell markers CD133, and KDR (VEGF-R).

Assay [2] has as its system first-pass cells. In words: Enrichment of EPCs from first-pass cells on plasma-coated flasks in the presence of progesterone, flow-cytometry staining. The class given is cell-based, human. Conditions: 0.02-2 microgram/ml progesterone, 5-20% autologous serum, VEGF, Heparin, 3 experiments. The method, then:
Coating T-75 Flasks with Autologous Plasma Example 2 for High % Serum Medium Culturing Collection of Cells for FACS Staining FACS Staining In a set of separate experiments, enrichment of EPCs from first-pass cells was evaluated following in-vitro growth on autologous plasma-coated T-75 Flasks in the presence of medium containing autologous serum, VEGF, progesterone and Heparin. These experiments were conducted with human blood, using the protocol described hereinabove. […] FACS staining results of cells cultured in media containing 5-20% autologous serum (typically 10%), 1, 2, 10, or 20 ng/ml VEGF, 0.02-2 microgram/ml progesterone and 5-25 IU/ml Heparin are summarized. The following surface markers were analyzed: CD45 (a pan-lymphocyte marker), the stem/progenitor cell markers CD34 and CD117, and the EPC/endothelial cell markers CD133 and KDR (VEGF-R).

On to `C[C@]12CC[C@@H]3c4ccc(O)cc4CC[C@H]3[C@@H]1CC[C@@H]2O` [17-β-estradiol], for which, in assay [1], the “CD34 average percentage staining” value came to 4.12%, the “CD45 average percentage staining” value is on record as 96.14%, the “CD117 average percentage staining” value is given as 1.41% and the “CD133 average percentage staining” value is on record as 1.77%. Also, the “KDR average percentage staining” value in assay [1] came out at 0.28%.

Take `CC(=O)[C@H]1CC[C@H]2[C@@H]3CCC4=CC(=O)CC[C@]4(C)[C@H]3CC[C@]12C` [progesterone]: in assay [2], the “CD34 AVG percentage staining” value came to 21.22%, the “CD45 AVG percentage staining” value is on record as 94.82%, the “CD117 AVG percentage staining” value is listed as 5.54% and the “CD133 AVG percentage staining” value is on record as 5.72%. Further, in assay [2], the “KDR AVG percentage staining” value is recorded as 1.05%.

For the origin of these results see patent publication US8685724B2, “In vitro techniques for use with stem cells” (Kwalata Trading Limited, priority 2004, dated 2014).
